Source: article PMC12040169 (PLOS Biology, 2025)

Assay: in vitro
Conditions: human, hela cells

SMILES	viability at 28.5 h, 10 µM (% viability) [%]	also measured
COc1ccc2c(c1OC)C(=O)N(c1cccc([N+](=O)[O-])c1)C2 [CBK115318]	99.5	
O=C(O)Cc1ccc(NC(=S)Nc2cccc(Cl)c2Cl)cc1 [CBK267064]	107	
N#CCC(=O)N1CCN(Cc2ccc3c(c2)OCO3)CC1 [CBK074447]	88.7	
Clc1ccc(CN2CCc3ccccc3C2)cc1Cl [CBK126395]	103	
CC(Oc1ccccc1)c1nnc(SCC(=O)Nc2cc(Cl)c(Cl)cc2Cl)n1C (centres unmarked) [CBK266262]	108	
c1csc(CN2CCNCC2)c1 [CBK027324]	105	
CN(C)CC(=O)Nc1ccc2n(c1=O)C[C@H]1C[C@@H]2CN(Cc2ccccn2)C1 [CBK289206]	107	
OCCC1CCCCN1c1nccnc1-c1ccsc1 (centres unmarked) [CBK037358]	105	
C#CCOc1cc(Br)c(/C=C(/C#N)c2ccc([N+](=O)[O-])cc2)cc1OCC [CBK266617]	104	
O=C(COc1ccccc1)N1CCC(Oc2nccnc2OCc2ccc(Cl)c(Cl)c2)CC1 [CBK160718]	99	
CN1C2CCC1CC(OC(=O)CCN1CCCC1)C2 (centres unmarked) [CBK261466]	95.3	
O=C1N[C@@H]2CCN(C(=O)CCn3ccccc3=O)C[C@@H]2CCCCCOc2ccccc21 [CBK292039]	94.2	
OCCn1nc(C2CCCC2)nc1CCc1c[nH]c2ccccc12 [CBK307509]	85.1	
C[C@]12C(=O)c3ccccc3NC(=O)C1[C@H]2C(=O)N1CCCCC1 (some centres unmarked) [CBK285281]	92	
COc1ccc(Br)cc1S(=O)(=O)NCC(=O)Nc1ccc(F)cc1 [CBK042223]	98.1	
CCOC(=O)CN1N=C(C)C(Cc2c(Cl)cccc2Cl)(OC)C1=O (centres unmarked) [CBK112646]	98.1	
Cc1ccc(S(=O)(=O)N/N=C/C=C/c2ccc(N(C)C)cc2)cc1 [CBK265078]	99.7	
CCn1c(SC(C)C(N)=O)nc2ccc(Br)cc2c1=O (centres unmarked) [CBK306424]	74.6	
CCCC(=O)c1ccc(S(=O)(=O)N2CCCN(Cc3ccc(F)c(C(F)(F)F)c3)CC2)cc1 [CBK062918]	93	
CC(C)NS(=O)(=O)c1ccc(NS(=O)(=O)c2ccc(F)c(C(=O)O)c2)cc1 [CBK297533]	93.6	
CC(=O)N(Cc1ccccc1)c1ccc(C(=O)O)cc1 [CBK286882]	102	
CN(C)C(=O)c1ccc(-c2cnc(OCC3CCN(C(=O)OC(C)(C)C)CC3)cn2)cc1F [CBK175076]	118	
CCOC(=O)CCCNC(=O)N1CCCC(C(=O)N(CC)CC)C1 (centres unmarked) [CBK156158]	92.3	

SMILES	viability at 28.5 h, 10 µM (% viability) [%]	also measured
OCCN1CSC(=S)N(CCc2ccc(Cl)cc2)C1 [CBK015713]	122	
O=C(c1ccc(NCCCCO)nc1)N1CCC(N2CCOCC2)CC1 [CBK306521]	96	
Cc1ccc(-c2nn(CCC#N)cc2C(=O)N2CCCCC2)cc1 [CBK306119]	89.6	
CN(C)c1cccc(NC(=O)Nc2ncc(Br)c3cccnc23)c1 [CBK107633]	94	
C(=N\Nc1nnnn1-c1ccccc1)/c1ccco1 [CBK007334]	109	
CN1CCN(c2nc(-c3ccccc3CO)cn3ccnc23)CC1 [CBK066347]	87.1	
COC(=O)C1CC(O)CC1C(=O)N1CCCC1 (centres unmarked) [CBK011029]	89.6	
COC(CNC(=O)N(C)Cc1nncn1C(C)C)c1cccs1 (centres unmarked) [CBK306556]	90.8	
O=C(O)CP(=O)(O)c1ccc(Cl)cc1 [CBK019291]		viability at 28.5 h, 10 µM: 102%
Cc1noc(C)c1NC(=O)N(Cc1ccc(-c2ccccc2)cc1)CC1CCNCC1 [CBK056721]	100	
CC(C)(CNS(=O)(=O)c1ccc(Cl)cc1)OCc1ccccc1 [CBK262088]	91.4	
COc1ccc(-c2cncc(NCC3CCOCC3)n2)cc1 [CBK037285]	96.5	
O=c1c2c(-c3ccccc3)ccnc2[nH]n1-c1ccccc1 [CBK287858]	97	
Nn1c(SCC(=O)Nc2ccc3c(c2)OCCO3)nnc1-c1ccccn1 [CBK267551]	87.4	
O=C(Nc1ccc(N2CCNCC2)c2ccccc12)c1ccccc1 [CBK028412T]	92.8	
CC1CCCN(Cc2c(C3CCNCC3)[nH]c3ncccc23)C1C (centres unmarked) [CBK285084]	89.1	
O=C(N[C@H]1CCN2C(=O)c3cc(-c4cccs4)ccc3NC(=O)[C@H]12)c1cccs1 [CBK289336]	91.8	
O=C(Cn1c(=O)n(Cc2cccs2)c2ncccc21)N1CCCC1 [CBK283894]	83.6	
CSc1nc(N/N=C/c2ccc(Cl)cc2)c2c3c(sc2n1)CN(C)CC3 [CBK262588]	107	
O=C(O)CCC(=O)Nc1cccc(C(=O)Nc2ccc(Br)cc2)c1 [CBK269129]	94.6	
Cc1c(C(=O)O)sc(S(=O)(=O)N2CCN(C(=O)CC3CCCC3)CC2)c1C(=O)O [CBK297122]	101	
O=C(Nc1ccc2nsnc2c1NC(=O)c1ccc2nsnc2c1)c1ccc2nsnc2c1 [CBK264309]	95.9	
CC(C)CNC(=O)c1cccc(NC(=O)N2CCC2c2cccs2)c1 (centres unmarked) [CBK306927]	99.9	

SMILES	viability at 28.5 h, 10 µM (% viability) [%]	also measured
c1csc(-c2cn3ccnc3c(NC3CC3)n2)c1 [CBK066712]	108	
Cc1cc(NS(=O)(=O)N2CCOCC2)no1 [CBK269894]	89.9	
O=c1[nH]ccn1CCNc1cc(-c2ccccc2Oc2ccccc2)ncn1 [CBK036966]	90.4	
COC(=O)CC1(CC(=O)OC)C(=O)N(C)C(=O)N(C)C1=O [CBK268554]		viability at 28.5 h, 10 µM (% viability, bulk resorufin, single well): 98.5%
Oc1cccc(Sc2cc(C(F)(F)F)ccn2)c1 [CBK115273]	97.7	
COC(=O)c1ncn(CC(=O)N2CCCCCC2)n1 [CBK305184]	98.9	
COc1ccc(S(=O)(=O)Nc2ccsc2C(=O)N2CCN(C)CC2)cc1OC [CBK004627]	95.3	
O=C1CCC(=O)N1 [CBK073851]	88.7	
O=C(O)Cc1cc2c(n1Cc1ccc(F)cc1)CCCC2=O [CBK283866]	93.8	
CCN1C(=O)c2ccccc2C(=O)[C@@]2(C)CN(C(C)C)C[C@@H]12 [CBK283480]	109	
COc1ccc(C(=O)Nc2noc3nc(C)ccc23)cc1OC [CBK287832]	89.7	
COc1cc([N+](=O)[O-])c2[nH]c(C(=O)O)c(CCNC(C)=O)c2c1 [CBK260895]	105	
O=C(NCCc1ccc(S(=O)(=O)NC(=O)NC2CCCCC2)cc1)NC1CCCCC1 [CBK011926]	88.4	
O=C1CCC[C@]2(CN(C(=O)C3CC3)C[C@H]2c2ccc(F)c(F)c2)N1 [CBK283364]	111	
Cc1nnc(SCC(=O)Nc2cc(C(F)(F)F)ccc2N2CCOCC2)o1 [CBK266815]	109	
O=S(=O)(Nc1ccc(-c2nc3cccnc3s2)cc1)c1ccccc1 [CBK287547]	116	
Cc1cc(N2CCN(C(=O)CCc3ccco3)CC2)nc(C(C)C)n1 [CBK305367]	106	
CS(=O)(=O)c1ccc(-c2c[nH]c([C@@H]3COCCN3Cc3ccccc3)n2)cc1 [CBK289300]	83.1	
O=C(O)c1ccccc1N1C(=O)c2ccc(Oc3ccc(Oc4ccc5c(c4)C(=O)N(c4ccccc4C(=O)O)C5=O)cc3)cc2C1=O [CBK261186]	88.6	
Cc1cnc(C(=O)NC2(c3ccc(Cl)cc3)CCC2)cn1 [CBK282775]	95.2	
CN1CCN(c2ccccc2NC(=O)CSc2ccc(Cl)cc2)CC1 [CBK267941]	98.9	
CNc1nc2ccccc2n1CC(=O)c1ccccc1 [CBK262251B]	96	
O=C(COc1ccccc1)n1nc(-c2ccco2)nc1NCc1cccs1 [CBK269145]	85.7	

SMILES	viability at 28.5 h, 10 µM (% viability) [%]	also measured
CCN(CC)C(=O)c1sc(NC(=O)c2cc(-c3ccncc3)nc3c(C)cccc23)c(C#N)c1C [CBK267771]	93.6	
c1ccc(-n2cc(-c3cncn3CCCN3CCCCC3)cn2)cc1 [CBK281465]	92.4	
O=C(c1cnc(-c2ccncc2)s1)N(CC(F)(F)F)C1CCC1 [CBK304119]	84.1	
CC(NC(=O)CN1CCCCCC1=O)c1cc2cc(Cl)ccc2o1 (centres unmarked) [CBK281448]	87.7	
Cc1cc(/C=N/NC(=O)c2ccc(CN3CCOCC3)cc2)c(C)n1-c1ccccc1 [CBK263329]	100	
NS(=O)(=O)c1cc(C(=O)O)ccc1Cl [CBK113676]	108	
Cc1ccc(NC(=O)COc2cccnc2)c(C)n1 [CBK200379]	102	
CC(C)Nc1cc(SC2CCCCC2)ncn1 [CBK107163]	92.4	
CC(C)(C)C(=O)N1CC[C@H]2NC(=O)N(c3ccc(F)cc3)C(=O)[C@H]21 [CBK289328]	86.4	
Cc1nnc(SCC(=O)N2CCCN(c3ccc(F)cc3)CC2)s1 [CBK306908]	88.7	
Nc1nc(CCC(=O)N2CCCC(c3cc(O)ncn3)C2)cs1 (centres unmarked) [CBK306976]	89.5	
Cc1nn(C2CCCO2)c(=O)nc1N (centres unmarked) [CBK021028]	101	
Cc1ccc(C)c(Sc2ccc(S(=O)(=O)Nc3ccc(C(=O)O)cc3)cc2)c1 [CBK297529]	109	
COCCNc1nc(-c2ccsc2)ccc1C(=O)N1CCN(C)CC1 [CBK105948]	112	
COc1nccnc1N1CCN(CCCn2c(=O)[nH]c3ccccc32)CC1 [CBK084226]	95.8	
Cc1ccc2[nH]c(CN3CCC(O)C3)cc(=O)c2c1 (centres unmarked) [CBK307690]	91.5	
O=C(Nc1ccc(N2CCCCC2)c2ccncc12)c1cccc(-n2cnnn2)c1 [CBK297754]	85.8	
COc1ccc([C@@]23CC[C@@H](NC(=O)c4ccc(SC(F)(F)F)cc4)C[C@@H]2N(C)CC3)cc1OC [CBK076654T]	94.9	
CCOC(=O)c1sc2ncccc2c1N [CBK115371]	83.9	
O=C(O)c1oc2ccccc2c1CN1CCN(c2ccccc2)CC1 [CBK286948]	115	
